Reference: PMC5428509, “Irreversible inhibition of BTK kinase by a novel highly selective inhibitor CHMFL-BTK-11 suppresses inflammatory response in rheumatoid arthritis model” (Scientific Reports, 2017)

What was measured:
[1] = target: T1, BTK kinase (Bruton's tyrosine kinase) (Homo sapiens, UniProt Q06187); experiment: ADP-Glo biochemical kinase assay; supported by Y551 autophosphorylation of wt vs C481S BTK and KinomeScan binding
T1 construct: purified BTK kinase

JAK3 kinase = target: T2, JAK3 kinase (Homo sapiens, UniProt P52333); experiment: ADP-Glo biochemical kinase assay; also strong binding in KinomeScan at […]
T2 construct: purified JAK3 kinase protein
T2 sequence (P52333 whole entry): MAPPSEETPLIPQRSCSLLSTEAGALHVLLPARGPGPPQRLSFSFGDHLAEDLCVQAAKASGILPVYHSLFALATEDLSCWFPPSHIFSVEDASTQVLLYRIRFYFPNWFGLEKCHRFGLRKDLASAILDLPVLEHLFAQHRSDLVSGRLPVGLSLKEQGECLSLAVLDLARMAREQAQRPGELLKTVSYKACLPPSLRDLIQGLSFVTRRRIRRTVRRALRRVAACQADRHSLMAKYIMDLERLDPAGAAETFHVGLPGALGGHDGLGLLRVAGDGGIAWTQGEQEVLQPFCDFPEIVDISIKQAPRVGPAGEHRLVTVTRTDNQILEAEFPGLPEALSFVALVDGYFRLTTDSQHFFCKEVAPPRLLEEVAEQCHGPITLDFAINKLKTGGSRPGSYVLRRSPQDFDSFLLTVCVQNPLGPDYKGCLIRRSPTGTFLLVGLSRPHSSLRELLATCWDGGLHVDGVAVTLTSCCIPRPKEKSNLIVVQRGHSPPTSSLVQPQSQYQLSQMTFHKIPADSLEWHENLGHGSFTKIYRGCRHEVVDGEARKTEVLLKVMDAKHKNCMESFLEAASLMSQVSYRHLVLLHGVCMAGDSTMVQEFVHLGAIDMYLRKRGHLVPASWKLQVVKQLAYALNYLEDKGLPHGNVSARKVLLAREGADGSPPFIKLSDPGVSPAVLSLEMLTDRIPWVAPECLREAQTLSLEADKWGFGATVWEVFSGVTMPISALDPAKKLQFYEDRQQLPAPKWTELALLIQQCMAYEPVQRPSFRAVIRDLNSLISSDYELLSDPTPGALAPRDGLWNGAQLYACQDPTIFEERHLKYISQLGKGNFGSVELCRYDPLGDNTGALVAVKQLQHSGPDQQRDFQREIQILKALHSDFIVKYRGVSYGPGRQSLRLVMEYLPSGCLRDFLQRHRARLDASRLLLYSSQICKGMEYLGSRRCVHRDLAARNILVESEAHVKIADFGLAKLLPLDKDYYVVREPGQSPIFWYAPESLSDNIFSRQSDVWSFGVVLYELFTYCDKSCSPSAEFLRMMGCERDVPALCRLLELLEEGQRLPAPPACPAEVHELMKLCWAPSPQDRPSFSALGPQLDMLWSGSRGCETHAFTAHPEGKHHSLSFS

PFCDPK1(P.falciparum) = target: T3, PFCDPK1(P.falciparum) (Plasmodium falciparum, UniProt P62344); experiment: biochemical; set-up: KinomeScan competition binding panel (DiscoveRx), percent of control at 1 uM; conditions: read-out: Percent Control
T3 construct: gene CDPK1
T3 sequence (P62344 whole entry): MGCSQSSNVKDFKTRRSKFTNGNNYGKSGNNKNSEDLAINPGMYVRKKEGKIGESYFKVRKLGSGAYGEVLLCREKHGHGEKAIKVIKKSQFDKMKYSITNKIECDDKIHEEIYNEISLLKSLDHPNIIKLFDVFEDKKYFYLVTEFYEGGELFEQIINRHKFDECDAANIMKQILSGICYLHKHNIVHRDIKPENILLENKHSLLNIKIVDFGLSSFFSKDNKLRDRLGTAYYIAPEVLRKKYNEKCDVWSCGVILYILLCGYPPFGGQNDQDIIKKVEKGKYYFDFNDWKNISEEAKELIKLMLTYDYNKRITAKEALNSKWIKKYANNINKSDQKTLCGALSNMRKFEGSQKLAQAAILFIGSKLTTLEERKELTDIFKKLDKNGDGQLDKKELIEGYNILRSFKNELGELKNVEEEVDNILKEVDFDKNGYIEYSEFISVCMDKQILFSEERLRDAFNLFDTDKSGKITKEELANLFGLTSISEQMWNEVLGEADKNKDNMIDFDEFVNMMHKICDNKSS

[2] = target: T4, ABL1(Q252H)-phosphorylated (Homo sapiens, UniProt P00519, Q252H); experiment: biochemical; set-up: KinomeScan competition binding panel (DiscoveRx), percent of control at 1 uM; conditions: read-out: Percent Control
T4 construct: phosphorylated
Source text: (§1) In order to further confirm the binding mode, we then tested the compounds in the BTK wild-type (wt) and BTK C481S mutant with immunoblotting by looking at the BTK Y551 auto-phosphorylation. […] In addition, a covalent bond was preferred to form between the […] acrylamide and Cys-481 near the hinge binding area, which further confirmed its irreversible binding mode (Fig. 1d). We next investigated CHMFL-BTK-11′s selectivity profile in 456 kinases/mutants with KinomeScan^TM technology.

ACVR2B = ACVR2B (Homo sapiens, UniProt Q13705); experiment: biochemical; set-up: KinomeScan competition binding panel (DiscoveRx), percent of control at 1 uM; conditions: read-out: Percent Control
Source text: as §1

ARK5 = target: T5, ARK5 (Homo sapiens, UniProt O60285); experiment: biochemical; set-up: KinomeScan competition binding panel (DiscoveRx), percent of control at 1 uM; conditions: read-out: Percent Control
T5 construct: gene NUAK1
T5 sequence (O60285 whole entry): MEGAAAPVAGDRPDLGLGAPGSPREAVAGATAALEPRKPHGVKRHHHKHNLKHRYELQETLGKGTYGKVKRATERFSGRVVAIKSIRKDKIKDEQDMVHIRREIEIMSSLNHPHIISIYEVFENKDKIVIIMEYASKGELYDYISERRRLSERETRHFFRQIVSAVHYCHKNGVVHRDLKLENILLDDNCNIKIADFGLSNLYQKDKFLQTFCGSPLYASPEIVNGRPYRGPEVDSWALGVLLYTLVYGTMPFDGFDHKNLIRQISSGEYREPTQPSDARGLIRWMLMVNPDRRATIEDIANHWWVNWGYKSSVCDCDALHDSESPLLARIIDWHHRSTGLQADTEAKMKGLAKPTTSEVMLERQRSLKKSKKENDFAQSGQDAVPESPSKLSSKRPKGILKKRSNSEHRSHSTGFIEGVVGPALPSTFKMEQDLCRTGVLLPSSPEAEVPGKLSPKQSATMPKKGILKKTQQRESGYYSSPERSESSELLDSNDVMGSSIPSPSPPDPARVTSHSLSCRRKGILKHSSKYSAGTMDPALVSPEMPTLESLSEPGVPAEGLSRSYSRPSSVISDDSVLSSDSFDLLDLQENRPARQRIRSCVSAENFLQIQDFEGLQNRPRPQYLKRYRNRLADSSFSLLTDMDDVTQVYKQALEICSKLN
Source text: as §1

AURKA = AURKA (Homo sapiens, UniProt O14965); experiment: biochemical; set-up: KinomeScan competition binding panel (DiscoveRx), percent of control at 1 uM; conditions: read-out: Percent Control
Source text: as §1

CSNK1G2 = CSNK1G2 (Homo sapiens, UniProt P78368); experiment: biochemical; set-up: KinomeScan competition binding panel (DiscoveRx), percent of control at 1 uM; conditions: read-out: Percent Control
Source text: as §1

CSNK2A1 = CSNK2A1 (Homo sapiens, UniProt P68400); experiment: biochemical; set-up: KinomeScan competition binding panel (DiscoveRx), percent of control at 1 uM; conditions: read-out: Percent Control
Source text: as §1

EGFR(S752-I759del) = EGFR(S752-I759del) (Homo sapiens, UniProt P00533, DEL752-759); experiment: biochemical; set-up: KinomeScan competition binding panel (DiscoveRx), percent of control at 1 uM; conditions: read-out: Percent Control
Source text: as §1

HCK = HCK (Homo sapiens, UniProt P08631); experiment: biochemical; set-up: KinomeScan competition binding panel (DiscoveRx), percent of control at 1 uM; conditions: read-out: Percent Control
Source text: as §1

KIT(A829P) = KIT(A829P) (Homo sapiens, UniProt P10721, A829P); experiment: biochemical; set-up: KinomeScan competition binding panel (DiscoveRx), percent of control at 1 uM; conditions: read-out: Percent Control
Sequence of KIT(A829P) (P10721 whole entry A829P): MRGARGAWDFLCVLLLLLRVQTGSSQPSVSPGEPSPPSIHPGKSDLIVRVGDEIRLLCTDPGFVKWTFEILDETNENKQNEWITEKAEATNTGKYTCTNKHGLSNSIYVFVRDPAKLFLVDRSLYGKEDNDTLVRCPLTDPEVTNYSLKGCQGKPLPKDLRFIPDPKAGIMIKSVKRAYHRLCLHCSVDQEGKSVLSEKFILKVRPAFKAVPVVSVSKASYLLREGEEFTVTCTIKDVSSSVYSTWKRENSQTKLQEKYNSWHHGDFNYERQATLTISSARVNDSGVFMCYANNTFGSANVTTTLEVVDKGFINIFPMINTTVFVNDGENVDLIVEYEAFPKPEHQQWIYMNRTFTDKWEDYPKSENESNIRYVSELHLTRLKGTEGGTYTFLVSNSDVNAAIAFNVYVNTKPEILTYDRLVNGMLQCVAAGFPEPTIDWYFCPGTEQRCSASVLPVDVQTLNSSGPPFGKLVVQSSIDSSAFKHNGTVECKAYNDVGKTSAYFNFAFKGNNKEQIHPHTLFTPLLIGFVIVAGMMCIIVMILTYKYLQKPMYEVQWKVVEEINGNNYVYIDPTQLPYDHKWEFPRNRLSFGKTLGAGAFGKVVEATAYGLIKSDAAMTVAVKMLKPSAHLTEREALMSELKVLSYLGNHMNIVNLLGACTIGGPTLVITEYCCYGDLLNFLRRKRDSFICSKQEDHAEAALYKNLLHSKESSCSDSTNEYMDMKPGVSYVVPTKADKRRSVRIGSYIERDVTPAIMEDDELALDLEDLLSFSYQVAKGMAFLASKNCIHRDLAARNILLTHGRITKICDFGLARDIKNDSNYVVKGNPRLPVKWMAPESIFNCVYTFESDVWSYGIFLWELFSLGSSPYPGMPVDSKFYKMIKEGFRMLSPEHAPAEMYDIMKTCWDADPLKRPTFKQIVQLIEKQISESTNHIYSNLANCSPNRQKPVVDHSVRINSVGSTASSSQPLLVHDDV
Source text: as §1

LYN = LYN (Homo sapiens, UniProt P07948); experiment: biochemical; set-up: KinomeScan competition binding panel (DiscoveRx), percent of control at 1 uM; conditions: read-out: Percent Control
Source text: as §1

MAST1 = MAST1 (Homo sapiens, UniProt Q9Y2H9); experiment: biochemical; set-up: KinomeScan competition binding panel (DiscoveRx), percent of control at 1 uM; conditions: read-out: Percent Control
Source text: as §1

MST1 = target: T6, MST1 (Homo sapiens, UniProt Q13043); experiment: biochemical; set-up: KinomeScan competition binding panel (DiscoveRx), percent of control at 1 uM; conditions: read-out: Percent Control
T6 construct: gene STK4
Source text: as §1

MYLK4 = MYLK4 (Homo sapiens, UniProt Q86YV6); experiment: biochemical; set-up: KinomeScan competition binding panel (DiscoveRx), percent of control at 1 uM; conditions: read-out: Percent Control
Source text: as §1

NEK6 = NEK6 (Homo sapiens, UniProt Q9HC98); experiment: biochemical; set-up: KinomeScan competition binding panel (DiscoveRx), percent of control at 1 uM; conditions: read-out: Percent Control
Source text: as §1

NEK7 = NEK7 (Homo sapiens, UniProt Q8TDX7); experiment: biochemical; set-up: KinomeScan competition binding panel (DiscoveRx), percent of control at 1 uM; conditions: read-out: Percent Control
Source text: as §1

PIP5K1A = PIP5K1A (Homo sapiens, UniProt Q99755); experiment: biochemical; set-up: KinomeScan competition binding panel (DiscoveRx), percent of control at 1 uM; conditions: read-out: Percent Control
Sequence of PIP5K1A (Q99755 whole entry): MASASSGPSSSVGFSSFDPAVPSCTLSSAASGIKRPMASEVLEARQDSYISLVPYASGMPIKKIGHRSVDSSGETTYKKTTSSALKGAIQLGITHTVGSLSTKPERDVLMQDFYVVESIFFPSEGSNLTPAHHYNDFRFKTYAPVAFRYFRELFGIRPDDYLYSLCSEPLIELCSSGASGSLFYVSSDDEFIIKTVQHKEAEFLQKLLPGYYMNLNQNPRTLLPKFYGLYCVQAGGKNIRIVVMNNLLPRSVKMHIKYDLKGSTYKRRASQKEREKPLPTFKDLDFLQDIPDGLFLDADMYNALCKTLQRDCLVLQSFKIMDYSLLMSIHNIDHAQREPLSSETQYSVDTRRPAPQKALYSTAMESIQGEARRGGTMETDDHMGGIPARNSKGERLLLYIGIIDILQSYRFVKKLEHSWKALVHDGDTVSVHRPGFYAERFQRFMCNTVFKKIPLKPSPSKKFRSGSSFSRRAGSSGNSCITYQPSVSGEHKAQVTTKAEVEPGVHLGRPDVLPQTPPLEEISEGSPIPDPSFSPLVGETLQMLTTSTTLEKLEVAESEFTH
Source text: as §1

PIP5K2B = target: T7, PIP5K2B (Homo sapiens, UniProt P78356); experiment: biochemical; set-up: KinomeScan competition binding panel (DiscoveRx), percent of control at 1 uM; conditions: read-out: Percent Control
T7 construct: gene PIP4K2B
T7 sequence (P78356 whole entry): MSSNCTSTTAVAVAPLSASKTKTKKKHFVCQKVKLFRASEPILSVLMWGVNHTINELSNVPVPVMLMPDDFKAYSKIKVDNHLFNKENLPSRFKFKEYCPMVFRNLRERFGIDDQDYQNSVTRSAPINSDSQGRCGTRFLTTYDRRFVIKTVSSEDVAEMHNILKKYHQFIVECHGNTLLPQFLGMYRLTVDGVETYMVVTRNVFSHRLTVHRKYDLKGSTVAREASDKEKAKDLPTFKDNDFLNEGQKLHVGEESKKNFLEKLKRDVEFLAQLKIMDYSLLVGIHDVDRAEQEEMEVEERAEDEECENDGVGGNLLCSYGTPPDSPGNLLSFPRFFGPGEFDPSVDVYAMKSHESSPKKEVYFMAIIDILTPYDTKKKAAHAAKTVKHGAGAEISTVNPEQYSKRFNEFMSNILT
Source text: as §1

PRKCE = PRKCE (Homo sapiens, UniProt Q02156); experiment: biochemical; set-up: KinomeScan competition binding panel (DiscoveRx), percent of control at 1 uM; conditions: read-out: Percent Control
Source text: as §1

RIOK3 = RIOK3 (Homo sapiens, UniProt O14730); experiment: biochemical; set-up: KinomeScan competition binding panel (DiscoveRx), percent of control at 1 uM; conditions: read-out: Percent Control
Source text: as §1

[3] = target: T8, RPS6KA5(Kin.Dom.1-N-terminal) (Homo sapiens, UniProt O75582); experiment: biochemical; set-up: KinomeScan competition binding panel (DiscoveRx), percent of control at 1 uM; conditions: read-out: Percent Control
T8 construct: Kin.Dom.1-N-terminal
Source text: as §1

SRPK3 = SRPK3 (Homo sapiens, UniProt Q9UPE1); experiment: biochemical; set-up: KinomeScan competition binding panel (DiscoveRx), percent of control at 1 uM; conditions: read-out: Percent Control
Source text: as §1

p38-gamma = target: T9, p38-gamma (Homo sapiens, UniProt P53778); experiment: biochemical; set-up: KinomeScan competition binding panel (DiscoveRx), percent of control at 1 uM; conditions: read-out: Percent Control
T9 construct: gene MAPK12
Source text: as §1

T1 sequence (Q06187 2-659): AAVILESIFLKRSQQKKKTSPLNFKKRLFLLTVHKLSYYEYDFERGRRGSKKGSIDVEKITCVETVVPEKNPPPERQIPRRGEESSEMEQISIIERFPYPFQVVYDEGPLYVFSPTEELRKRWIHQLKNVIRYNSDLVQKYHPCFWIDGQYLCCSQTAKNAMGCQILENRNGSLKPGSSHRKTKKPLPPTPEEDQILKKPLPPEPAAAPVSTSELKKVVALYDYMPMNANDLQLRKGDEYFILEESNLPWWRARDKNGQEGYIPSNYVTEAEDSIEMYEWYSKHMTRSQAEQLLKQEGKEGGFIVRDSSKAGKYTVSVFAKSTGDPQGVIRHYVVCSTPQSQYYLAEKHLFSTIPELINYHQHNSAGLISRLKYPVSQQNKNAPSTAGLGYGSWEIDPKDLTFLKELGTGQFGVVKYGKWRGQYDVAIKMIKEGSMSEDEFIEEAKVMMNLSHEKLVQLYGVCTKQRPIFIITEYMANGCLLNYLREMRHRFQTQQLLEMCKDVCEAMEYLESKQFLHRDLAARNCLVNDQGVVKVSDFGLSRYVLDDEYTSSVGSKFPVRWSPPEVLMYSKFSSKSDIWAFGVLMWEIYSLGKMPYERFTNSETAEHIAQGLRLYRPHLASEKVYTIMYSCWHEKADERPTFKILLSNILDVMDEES

Q: `C=CC(=O)Nc1cc(-n2c(=O)ccc3cnc4ccc(-n5cccn5)cc4c32)ccc1C` [CHMFL-BTK-11] was tested. Which IC50 [1] did it give?
A: 26.8 nM

Q: What about the IC50 (JAK3 kinase) of the same molecule?
A: 227 nM

Q: What about the remaining binding at 1 µM (PFCDPK1(P.falciparum)) of the same molecule?
A: 97%

Q: And the remaining binding at 1 µM [2]?
A: 100%

Q: And the remaining binding at 1 µM (ACVR2B)?
A: 95%

Q: And the remaining binding at 1 µM (ARK5)?
A: 100%

Q: And the remaining binding at 1 µM (AURKA)?
A: 71%

Q: What about the remaining binding at 1 µM (CSNK1G2) of the same molecule?
A: 100%

Q: And the remaining binding at 1 µM (CSNK2A1)?
A: 92%

Q: What about the remaining binding at 1 µM (EGFR(S752-I759del)) of the same molecule?
A: 58%

Q: And the remaining binding at 1 µM (HCK)?
A: 100%

Q: What about the remaining binding at 1 µM (KIT(A829P)) of the same molecule?
A: 98%

Q: And the remaining binding at 1 µM (LYN)?
A: 94%

Q: What about the remaining binding at 1 µM (MAST1) of the same molecule?
A: 100%

Q: And the remaining binding at 1 µM (MST1)?
A: 100%

Q: What about the remaining binding at 1 µM (MYLK4) of the same molecule?
A: 100%

Q: What about the remaining binding at 1 µM (NEK6) of the same molecule?
A: 100%

Q: What about the remaining binding at 1 µM (NEK7) of the same molecule?
A: 100%

Q: What about the remaining binding at 1 µM (PIP5K1A) of the same molecule?
A: 100%

Q: What about the remaining binding at 1 µM (PIP5K2B) of the same molecule?
A: 100%

Q: And the remaining binding at 1 µM (PRKCE)?
A: 97%

Q: And the remaining binding at 1 µM (RIOK3)?
A: 80%

Q: And the remaining binding at 1 µM [3]?
A: 94%

Q: What about the remaining binding at 1 µM (SRPK3) of the same molecule?
A: 96%

Q: What about the remaining binding at 1 µM (p38-gamma) of the same molecule?
A: 79%
